The test system of this test is L1210 leukemia ip in BDF1 mice, survival T/C. As to the kind of experiment: NCI In Vivo Anticancer Drug Screen. Data for tumor model L1210 Leukemia (intraperitoneal) in B6D2F1 (BDF1) mice. Particulars: endpoint: mean survival time, higher = longer survival. The method in brief:
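Antitumor effect is assessed in tumor-bearing animals. Survival in the compound arm is compared with a vehicle-dosed control arm and expressed as their quotient.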

Setting [1] is: dose: 25.0 mg/kg/injection, schedule: Q01DX009 (ip), vehicle: saline.
Setting [2] is: dose: 50.0 mg/kg/injection, schedule: Q01DX009 (ip), vehicle: saline.
[3] abbreviates: dose: 100.0 mg/kg/injection, schedule: Q01DX009 (ip), vehicle: Klucel (hydroxypropylcellulose) (HPC).
Setting [4] is: dose: 200.0 mg/kg/injection, schedule: Q01DX009 (ip), vehicle: Klucel (hydroxypropylcellulose) (HPC).
The mark [5] stands for this setting: dose: 400.0 mg/kg/injection, schedule: Q01DX009 (ip), vehicle: Klucel (hydroxypropylcellulose) (HPC).
[6] abbreviates: dose: 100.0 mg/kg/injection, schedule: Q01DX001 (ip), vehicle: saline.
Where [7] appears, read: dose: 50.0 mg/kg/injection, schedule: Q01DX009 (ip), vehicle: saline with Tween-80.
Setting [8] is: dose: 100.0 mg/kg/injection, schedule: Q01DX009 (ip), vehicle: saline with Tween-80.
The mark [9] stands for this setting: dose: 200.0 mg/kg/injection, schedule: Q01DX009 (ip), vehicle: saline with Tween-80.

Inconclusive results and toxic doses are left out.

On to `C=CCc1cn(C2OC(COC(=O)c3ccccc3)C(OC(=O)c3ccccc3)C2OC(=O)c2ccccc2)c(=O)[nH]c1=O` (stereo not given), for which the T/C is 92 % of control (dose: 12.5 mg/kg/injection, schedule: Q01DX005 (ip), vehicle: saline); 95 % of control (dose: 12.5 mg/kg/injection, schedule: Q01DX009 (ip), vehicle: saline); 92 % of control (dose: 25.0 mg/kg/injection, schedule: Q01DX005 (ip), vehicle: saline); 95 % of control under setting [1]; 94 % of control (dose: 50.0 mg/kg/injection, schedule: Q01DX005 (ip), vehicle: saline); 98 % of control under setting [2].
For the compound `CNc1nc2ncn(C)c2c(=O)[nH]1`, the T/C (dose: 100.0 mg/kg/injection, schedule: Q01DX009 (ip), vehicle: saline) is 97 % of control; the T/C (dose: 200.0 mg/kg/injection, schedule: Q01DX009 (ip), vehicle: saline) was 98 % of control; the T/C (dose: 400.0 mg/kg/injection, schedule: Q01DX009 (ip), vehicle: saline) is 98 % of control.
Turning to `Cc1cc(/C=N/NC(=O)c2ccccc2NC(=O)c2ccccc2Cl)ccc1O`, the T/C was 88 % of control under setting [3], 92 % of control under setting [4] and 86 % of control under setting [5].
For `Cc1ccc(NNP(Cl)(c2ccccc2)(c2ccccc2)c2ccccc2)cc1`, the T/C (dose: 50.0 mg/kg/injection, schedule: Q01DX001 (ip), vehicle: saline) is 92 % of control and the T/C under setting [6] is 97 % of control.
Turning to `[O-][n+]1c(C(Br)(Br)Br)ccc2ccccc21`, the T/C is 97 % of control (dose: 50.0 mg/kg/injection, schedule: Q01DX009 (ip), vehicle: Klucel (hydroxypropylcellulose) (HPC)); 95 % of control under setting [3]; 106 % of control under setting [4].
As to `CNC(=N)c1ccc(NC(=N)c2ccc(NC(=O)Nc3cccc(NC(=O)Nc4ccc(C(=N)Nc5ccc(C(=N)NC)cc5)cc4)c3)cc2)cc1`, the T/C by setting is: (dose: 0.31 mg/kg/injection, schedule: Q01DX015 (ip), vehicle: water) 103 % of control; (dose: 0.62 mg/kg/injection, schedule: Q01DX015 (ip), vehicle: water) 115 % of control; (dose: 1.0 mg/kg/injection, schedule: Q01DX Z (ip), vehicle: water) 154 % of control; (dose: 2.0 mg/kg/injection, schedule: Q01DX Z (ip), vehicle: water) 158 % of control; (dose: 3.5 mg/kg/injection, schedule: Q01DX Z (ip), vehicle: water) 150 % of control; (dose: 4.0 mg/kg/injection, schedule: Q01DX Z (ip), vehicle: water) 150 % of control. For the same compound, the T/C is 162 % of control (dose: 5.0 mg/kg/injection, schedule: Q01DX015 (ip), vehicle: water); 172 % of control (dose: 7.0 mg/kg/injection, schedule: Q01DX Z (ip), vehicle: water); 203 % of control (dose: 7.5 mg/kg/injection, schedule: Q01DX015 (ip), vehicle: water); 241 % of control (dose: 10.0 mg/kg/injection, schedule: Q01DX015 (ip), vehicle: water); 236 % of control (dose: 10.0 mg/kg/injection, schedule: Q01DX Z (ip), vehicle: water); 193 % of control (dose: 14.25 mg/kg/injection, schedule: Q01DX Z (ip), vehicle: water). The T/C is 340 % of control (dose: 15.0 mg/kg/injection, schedule: Q01DX015 (ip), vehicle: water) and 92 % of control (dose: 28.5 mg/kg/injection, schedule: Q01DX Z (ip), vehicle: water).
As to `O=C(c1ccccc1)C(Br)[N+](=O)[O-]` (stereo not given), the T/C was 100 % of control under setting [6]; 103 % of control (dose: 200.0 mg/kg/injection, schedule: Q01DX001 (ip), vehicle: saline); 96 % of control (dose: 400.0 mg/kg/injection, schedule: Q01DX001 (ip), vehicle: saline).
On to `CCN1CCC(CN2c3ccccc3Sc3ccccc32)C1` (stereo not given), for which the T/C by setting is: under setting [1], 105 % of control; (dose: 25.0 mg/kg/injection, schedule: Q04DX003 (ip), vehicle: saline) 94 % of control; under setting [2], 110 % of control; (dose: 50.0 mg/kg/injection, schedule: Q04DX003 (ip), vehicle: saline) 102 % of control; under setting [6], 98 % of control; (dose: 100.0 mg/kg/injection, schedule: Q04DX003 (ip), vehicle: saline) 112 % of control.
For `CCOC(=O)C(Cc1ccccc1)C1=NC(C)(C)CC(C)O1` (stereo not given), the T/C reads like this: (dose: 10.0 mg/kg/injection, schedule: Q01DX009 (ip), vehicle: alcohol) 100 % of control; (dose: 200.0 mg/kg/injection, schedule: Q01DX009 (ip), vehicle: alcohol) 104 % of control; (dose: 400.0 mg/kg/injection, schedule: Q01DX009 (ip), vehicle: alcohol) 102 % of control.
`CC1(C)SC(C(NC(=O)COc2ccccc2)C(=O)O)NC1C(=O)O` (stereo not given): the T/C by setting is: under setting [7], 101 % of control; under setting [8], 95 % of control; under setting [9], 88 % of control.
In the case of `O=C(Nc1ccccc1O)c1ccc([N+](=O)[O-])cc1`, the T/C is, setting by setting: under setting [3], 100 % of control; under setting [4], 91 % of control; under setting [5], 93 % of control.
As to `COc1cc(/C=N\NC(=O)CC#N)cc(OC)c1OC`, the T/C is, setting by setting: under setting [7], 87 % of control; under setting [8], 87 % of control; under setting [9], 94 % of control.
With `Cc1nc(Cl)c(Cl)[nH]1`, the T/C under setting [8] was 97 % of control and the T/C under setting [9] was 111 % of control.
On to `CCCCNc1nc2ccccc2[nH]1`, for which the T/C is, setting by setting: (dose: 5.0 mg/kg/injection, schedule: Q01DX009 (ip), vehicle: acetone) 98 % of control; (dose: 10.0 mg/kg/injection, schedule: Q01DX001 (ip), vehicle: saline) 103 % of control; (dose: 10.0 mg/kg/injection, schedule: Q01DX009 (ip), vehicle: acetone) 98 % of control; (dose: 20.0 mg/kg/injection, schedule: Q01DX001 (ip), vehicle: saline) 101 % of control; (dose: 20.0 mg/kg/injection, schedule: Q01DX009 (ip), vehicle: acetone) 110 % of control; (dose: 40.0 mg/kg/injection, schedule: Q01DX001 (ip), vehicle: saline) 101 % of control.
For the compound `CCCCNC(=O)N(CC)C(=NCC)c1ccc(NC(=O)c2ccc(C(=O)Nc3ccc(C(=NCC)N(CC)C(=O)NCCCC)cc3)cc2)cc1`, the T/C (dose: 3.12 mg/kg/injection, schedule: Q01DX015 (ip), vehicle: methylcellulose (MC)) was 109 % of control; the T/C (dose: 6.25 mg/kg/injection, schedule: Q01DX015 (ip), vehicle: methylcellulose (MC)) was 121 % of control; the T/C (dose: 12.5 mg/kg/injection, schedule: Q01DX015 (ip), vehicle: methylcellulose (MC)) is 178 % of control; the T/C (dose: 25.0 mg/kg/injection, schedule: Q01DX015 (ip), vehicle: methylcellulose (MC)) was 120 % of control.
`CC(C)COC1CCCC(Oc2ccccc2)O1` (stereo not given): the T/C was 92 % of control (dose: 55.0 mg/kg/injection, schedule: Q01DX Z (ip), vehicle: methylcellulose (MC)); 100 % of control (dose: 83.0 mg/kg/injection, schedule: Q01DX Z (ip), vehicle: methylcellulose (MC)); 91 % of control (dose: 125.0 mg/kg/injection, schedule: Q01DX Z (ip), vehicle: methylcellulose (MC)).
On to `CCCCCCNS(=O)(=O)c1ccc([N+](=O)[O-])cc1`, for which the T/C by setting is: (dose: 100.0 mg/kg/injection, schedule: Q04DX003 (ip), vehicle: Klucel (hydroxypropylcellulose) (HPC)) 100 % of control; (dose: 200.0 mg/kg/injection, schedule: Q04DX003 (ip), vehicle: Klucel (hydroxypropylcellulose) (HPC)) 100 % of control; (dose: 400.0 mg/kg/injection, schedule: Q04DX003 (ip), vehicle: Klucel (hydroxypropylcellulose) (HPC)) 93 % of control.

The values are drawn from PubChem BioAssay AID248 (DTP/NCI, 2004).
